Like-named read-outs stand apart in the source and are kept apart here.
How the values were obtained:
hPPARγ = biological target: T1, hPPARγ (Homo sapiens, UniProt P37231); assay: PPAR/Gal4 chimera luciferase reporter transactivation assay in transiently transfected Cos-7 cells (hPPARγ); format: cell-based; settings: for Emax: COS-7, read-out: hPPARγ Efficacy (%); for hPPARγ Efficacy (%): maximum activity as percentage of the maximum activity of rosiglitazone
T1 sequence (P37231 238-505): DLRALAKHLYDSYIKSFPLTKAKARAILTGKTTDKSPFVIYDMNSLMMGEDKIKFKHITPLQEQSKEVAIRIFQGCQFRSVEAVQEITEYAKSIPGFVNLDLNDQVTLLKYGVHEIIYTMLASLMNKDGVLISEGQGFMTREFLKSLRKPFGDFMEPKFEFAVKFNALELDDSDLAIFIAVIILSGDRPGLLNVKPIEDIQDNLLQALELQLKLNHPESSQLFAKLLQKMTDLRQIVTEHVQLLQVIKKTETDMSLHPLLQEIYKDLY
Protocol: (§1) The cells were maintained under standard culture conditions (Dulbecco modified minimum essential Eagle medium, DMEM) supplemented with 10% fetal calf serum (FCS) at 37°C in 5% […] CO2 atmosphere. The medium was changed every 2 days. The Cos-7 cells were seeded in 60 mm discs at a density of 5.5 × 10^5 cells/disc in DMEM supplemented with 10% FCS and incubated at 37°C for 16 h before transfection. The cells were transfected in DMEM using jetPEI, with reporter (pG5-TK-pGL3) and expression (pGal4-h, hPPARα or hPPARγ) plasmids. The expression plasmid pCMV-β-galactosidase was cotransfected as a control for transfection efficacy. After 16 h the transfection was stopped adding DMEM supplemented with 10% FCS, and the cells were trypsinised and seeded in 96-well plates and incubated for 6 h in DMEM containing 10% FCS. Subsequently, the cells were incubated for 24 h in DMEM containing 0.2% FCS and increasing concentrations of the compounds or the vehicle (DMSO, maximum concentration 0.1%) were tested. Finally, the cells were washed once with PBS cooled on ice, lysed and the luciferase and β-galactosidase assays were performed.
(§2) To evaluate the compounds for PPAR transcriptional activity, the tests were conducted in a PPAR/Gal4 chimera of a human luciferase reporter gene to determine the maximum transactivation response of each compound.

hPPARα = biological target: T2, hPPARα (Homo sapiens, UniProt Q07869); assay: PPAR/Gal4 chimera luciferase reporter transactivation assay in transiently transfected Cos-7 cells (hPPARα); format: cell-based; settings: for Emax: COS-7, read-out: hPPARα Efficacy (%); for hPPARα Efficacy (%): maximum activity as percentage of the maximum activity of WY-14643; for EC50: Cos-7 cells, 24 h, tested 0.001 to 10 µM, read-out: hPPARα EC50
T2 sequence (Q07869 167-468): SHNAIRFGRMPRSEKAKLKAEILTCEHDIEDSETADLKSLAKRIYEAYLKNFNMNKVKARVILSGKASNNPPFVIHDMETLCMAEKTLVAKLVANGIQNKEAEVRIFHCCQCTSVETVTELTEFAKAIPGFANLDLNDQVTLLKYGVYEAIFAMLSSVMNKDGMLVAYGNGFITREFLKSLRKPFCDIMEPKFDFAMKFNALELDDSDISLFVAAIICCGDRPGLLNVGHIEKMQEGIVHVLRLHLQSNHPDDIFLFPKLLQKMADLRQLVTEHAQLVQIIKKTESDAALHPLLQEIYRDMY
Protocol: as §1, §2

human neutrophils [1] = assay: Annexin V / propidium iodide flow cytometry of apoptosis and survival, neutrophils; format: cell-based; settings: 100 µM, 24 h, compared to the vehicle
Protocol: (§3) In addition, the apoptosis and survival rate for human neutrophils and HUVEC was determined by double staining with annexin V and propidium iodide (PI) by flow cytometry.
(§4) Cytofluorometric analysis of apoptosis and survival. The kit FITC Annexin V Apoptosis Detection kit (BD Bioscience, San Jose, CA) was used. The staining protocol and all the reagents were supplied with the commercial kit. HUVEC were separated from the culture flasks by accutase (StemPro® Accutase® Cell dissociation reagent, Thermofischer Scientific Waltham, MA). Both cell types were incubated at 37°C for 24h in the presence or absence of the test compounds. Confluent HUVEC and freshly isolated neutrophils were washed, resuspended in binding buffer 1x (1 × 10^6 cells/mL) and stained with annexin V conjugated with FITC and propidium iodide (PI) as described in the manufacturer's instructions. The cells were analyzed in a BD FACSVerse Flow Cytometer (BD Biosciences, San Jose, CA) and differentiated as early apoptosis cells (annexin V^+ and PI^-), late apoptosis cells and/or necrotic cells (annexin V^+ and PI^+), and live cells (annexin V^- and PI^-).

[2] = tested on: human umbilical vein endothelial cells (HUVEC); assay: MTT colorimetric cell viability assay, HUVEC; format: cell-based; settings: 30 µM, 24 h
Protocol: (§5) To evaluate potential adverse effects (cytotoxicity) of the compounds of the invention, the compounds 1 and 2 for use according to the present invention, compound 8 of the invention, and the reference compounds were evaluated at concentrations of 30 and 100 µM in human neutrophils (Fig. 1A) and primary cultures of human umbilical vein endothelial cells (HUVEC) (Fig. 1B) using two different techniques: MTT colorimetry assay and flow cytometry analysis for cellular apoptosis and survival. In addition, the synthetic compound 9 of the invention was evaluated at 10, 30 and 100 µM (Fig. 2).
(§6) MTT assay. The viability of neutrophils and HUVEC was determined by the MTT colorimetric assay MTT (3(4,5-dimethylthiazol-2-yl)-2,5-diphenyltetrazoyl bromide).
Human umbilical vein endothelial cells (HUVEC) were isolated with the collagenase treatment and maintained in a human specific endothelial base medium (EBM-2) supplemented with endothelial growth medium (EGM-2) and 10% FCS. Cells of the first passage were cultured until their confluence in 24-well plates. Before starting each experiment, the cells were incubated for 24 h in a medium containing 1% FBS.
(§7) 100 µL of neutrophils and HUVEC (2 × 10^5 cells/mL) suspension in supplemented RPMI medium were added to each well of a 96-well plate. The cells were incubated in absence and/or presence of the compounds at 37°C for24h. An MTT solution was prepared (2 mg/mL in PBS). 100 µL of the MTT solution were added to each well and incubated at 37°C for an additional 3 h. The supernatants were discarded and 200 µL of DMSO were added to each well to dissolve the precipitated formazan. The optical densities at two wavelengths (560 and 630 nm) were measured in a spectrophotometer (Infinite M200, Tecan, Mannedorf, Switzerland).

human neutrophils [3] = assay: MTT colorimetric cell viability assay, neutrophils; format: cell-based; settings: 30 µM, 24 h
Protocol: as §5, §6
Neutrophils were obtained from the leukocyte-platelet fraction (buffy coats) of healthy donors by centrifuging with Ficoll-Hypaque density gradient.
as §7

HUVEC = assay: Annexin V / propidium iodide flow cytometry of apoptosis and survival, HUVEC; format: cell-based, human; settings: 24 h; for apoptosis and survival: 30 µM; for reduced cell survival: 100 µM
Protocol: as §3, §4

[4] = Treatment of ob/ob mice: plasma metabolites (cholesterol, HDL-c, triglycerides, free fatty acids, ALT, AST); format: in vivo; settings: oral, 4 days
Protocol: […]. […] […].
Free fatty acids (FFA) in plasma, and the enzymes aspartate aminotransferase (AST) and alanine aminotransferase (ALT) were determined with a colorimetric assay kit (Sigma-Aldrich, Madrid, Spain). In addition the plasma lipid levels for total cholesterol and triglycerides (TG) were measured by enzymatic methods (WAKO, Cape Charles, VA). The concentration of HDLcholesterol (HDL-c) was also determined with the same method used to measure total cholesterol, after precipitating the apolipoprotein-B (apoB) with dextran sulphate/MgCl2 (Sigma-Aldrich, Madrid, Spain) as previously described (Zieske et al., 2005).

[5] = Cos-7 cells, 24 h, tested 0.001 to 10 µM, read-out: hPPARγ EC50

Compound	Emax (hPPARγ) [%]	Emax (hPPARα) [%]	EC50 (hPPARγ; [5]) [nM]	other results
CCCOC(=O)/C(C)=C/CC/C(C)=C/CCC1(C)CCc2cc(O)cc(C)c2O1 (stereo not shown) [Compound 3]	86	100		
C/C(=C\CCC1(C)CCc2cc(OCC(N)=O)cc(C)c2O1)CC/C=C(\C)C(=O)OCc1ccccc1 (stereo not shown) [Compound 4a]	0	18		
C/C(=C\CCC1(C)CCc2cc(OCc3ccccc3)cc(C)c2O1)CC/C=C(\C)C(=O)OCc1ccccc1 (stereo not shown) [Compound 4b]	0	28		
COC(=O)C(C)=CCCC(C)=CCCC1(C)CCc2cc(O)cc(C)c2O1 (stereo not shown) [Compound 5]			574	hPPARγ Efficacy (%) (hPPARγ): 35%; hPPARα Efficacy (%) (hPPARα): 27%
COC(=O)COC(=O)/C(C)=C/CC/C(C)=C/CCC1(C)CCc2cc(OC(=O)c3ccccc3)cc(C)c2O1 (stereo not shown) [Compound 6]	0	14		
COC(=O)C(OC(=O)/C(C)=C/CC/C(C)=C/CCC1(C)CCc2cc(OC)cc(C)c2O1)C(=O)OC (stereo not shown) [Compound 7]	37	76		
COC(=O)COC(=O)/C(C)=C/CC/C(C)=C/CCC1(C)CCc2cc(OC)cc(C)c2O1 (stereo not shown) [Compound 8]	24	39	12	effect on cell survival (human neutrophils [1]): 5.3%; toxicity (MTT) [2]: showed toxicity; toxicity (MTT) (human neutrophils [3]): showed toxicity; apoptosis and survival (HUVEC): some significant effects; reduced cell survival (HUVEC): 61,3%
CCOC(=O)/C(=C/CC/C(C)=C/CCC1(C)CCc2cc(OCc3ccccc3)ccc2O1)OCC (stereo not shown) [Compound 10]	183	60	2000	
CCO/C(=C\CC/C(C)=C/CCC1(C)CCc2cc(OCc3ccccc3)ccc2O1)C(=O)O (stereo not shown) [Compound 11]	62	96	300	EC50 (hPPARα): 1500 nM
CCOC(=O)/C(=C/CC/C(C)=C/CCC1(C)CCc2cc(OCc3ccc(F)cc3)ccc2O1)OCC (stereo not shown) [Compound 12]	183	113	2000	
CCOC(=O)C(=CCCC1(C)CCc2cc(OCc3ccccc3)ccc2O1)OCC(F)(F)F (stereo not shown) [Compound 13]				EC50 (hPPARγ): 400 nM; hPPARγ Efficacy (%) (hPPARγ): 39%; hPPARα Efficacy (%) (hPPARα): 166%
COc1cc(C)c2c(c1)CCC(C)(CC/C=C(\C)CC/C=C(\C)C(=O)O)O2 (stereo not shown) [Polycerasoidin, 2, polycerasoidin]	55	82	1000	toxicity (MTT) [2]: showed toxicity; toxicity (MTT) (human neutrophils [3]): showed toxicity; EC50 (hPPARα): 1000 nM; apoptosis and survival (HUVEC): some significant effects; reduced cell survival (HUVEC): 38,9%
CN(CCOc1ccc(CC2SC(=O)NC2=O)cc1)c1ccccn1 (stereo not shown) [Rosiglitazone, rosiglitazone, reference compound]				effect on cell survival (human neutrophils [1]): 8.5%; apoptosis and survival (HUVEC): some significant effects; reduced cell survival (HUVEC): 79,2%
Cc1cccc(Nc2cc(Cl)nc(SCC(=O)O)n2)c1C [WY-14643, reference compound]				cytotoxicity (MTT) (human neutrophils [3]): 9%; triglyceride levels in plasma (in words) [4]: decrease of triglyceride levels in plasma, although not in a significant manner; increase of total cholesterol levels with respect to the control group ([4]; plasma, 30 mg/Kg/d): 64%; HDL-c with respect to the control group ([4]; plasma, compound 9 10 and 30 mg/Kg/d, WY-14643 30 mg/Kg/d): significantly increased
